# Source: US9486535B2, “Methods of making and using nanostructures” (REGENTS OF THE UNIVERSITY OF MINNESOTA, priority 2012, dated 2016)
# Read-outs that look alike come from different tables or passages of the source. {bisMTX} = bis-methotrexate conjugate; {Fluorescein} = fluorescein label
# How the values were obtained:
# HPB-MLT cells [1] = assay: Flow cytometry binding to CD3+ cells; format: cell-based; conditions: 4° C., 1 hr
# Experimental: 1×10^6 HPB-MLT (or Raji) cells were treated with BisMTX-FITC containing CSAN constructs at the required concentrations at 4° C. for 1 hr in PBS buffer (containing 0.05% BSA and 0.1% sodium azide). Cells were centrifuged (400×g, 10 min), washed twice with PBS/BSA/sodium azide buffer before being resuspended in the same buffer. Their fluorescence was analyzed with a FACSCalibur flow cytometer (BD Biosciences). For competition experiments, HPB-MLT cells were incubated with 40 nM UCHT-1 on ice for 10 mins prior to addition BisMTX-FITC CSAN constructs anti-CD3 constructs (100 nM) followed by washing as above. For disassembly experiments HPB-MLT cells were treated with 150 nM CSANs or 3.95 nM UCHT-1 FITC for 1 hour at 37° C. before being washed twice with RPMI media and finally resuspended in media. […] Samples were stored at 4° C. in the dark until analyzed.
# 1×10^6 HPB-MLT cells were treated with FITC or BODIPY labeled constructs (1/0.5/0.1 μM) at 4° C. for 1 hr in PBS buffer (containing 0.05% BSA and 0.1% sodium azide). Cells were pelleted (400×g, 10 min), washed twice, and finally resuspended in the supplemented PBS and their fluorescence was analyzed with a FACSCalibur flow cytometer (BD Biosciences). […] After 1 hr incubation cells were washed, resuspended and analyzed by flow cytometry. […]
# HPB-MLT cells [2] = assay: Fluorescence confocal microscopy of internalization; format: cell-based; conditions: 37° C., 1 hr
# Experimental: BisMTX-FITC (or BisMTX-PG) and the appropriate DHFR fusion protein were mixed (250 nM) and added to 0.5×10^6 HPB-MLT cells at either 4 or 37° C. for 1 hr in RPMI media. Cells were then pelleted by centrifugation (400×g, 5 min). After being washed twice with PBS (phosphate buffered saline) cells were incubated on Poly-Prep slides coated with poly-L-Lysine (Sigma) at 4 or 37° C. for 30 mins. Cells were then fixed with 4% paraformaldehyde solution for 10 mins and washed thrice with PBS. Finally, cells were treated with ProLong Gold Antifade reagent with DAPI (Invitrogen), a cover slip was applied.
# After overnight incubation, images were taken within inner sections of the cells by sequential scanning using a fluorescence confocal microscopy using an Olympus FluoView 1000 BX2 Upright Confocal microscope. Resulting images are the compression of 3-5 z-axis slices. For disassembly experiments after the initial one hour incubation cells were washed twice with PBS before being resuspended in media containing 2 mM trimethoprim, 0.5 mM pyrimethamine or DMSO for three hours at 37° C. after which time they were processed as above. […]
# 0.5×10^6 HPB-MLT cells were treated with FITC or BODIPY labeled constructs (1 μM) at either 4 or 37° C. for 1 hr in RPMI media. […] After overnight incubation they were imaged by fluorescence confocal microscopy using a Olympus FluoView 1000 BX2 Upright Confocal microscope. […]
# DHFR = conditions: cited from earlier work
# HPB-MLT cells [3] = assay: Cytotoxicity analysis (CellTiter 96 AQueous cell proliferation assay); format: cell-based
# Experimental: 2.5×10^4 HPB-MLT cells were mixed with the appropriate concentration of antiCD3 CSANs in a total volume of 90 uL and incubated at 37° C. for one hour. […] Cell viability was determined using CellTiter 96 AQueous Non-Radioactive Cell Proliferation Assay (Promega).
# Solubility in water = format: physicochemical
molecule,measurement,setting,value
"5′ Fluorescein-TGTCATATTCCTGGATCC-Bis-MTX 3′ (5' {Fluorescein}, 3' {bisMTX}, sugars by position and backbone not given here; further chemistry not fully specified) [bis-MTX oligo FITC, bis-MTX oligo conjugate labelled with fluorescein]",cell fluorescence relative to unstained/untreated cells (binding),HPB-MLT cells [1],only a small increase in fluorescence
same,internalization (confocal),HPB-MLT cells [2],no increased cellular fluorescence
"CN(Cc1cnc2nc(N)nc(N)c2n1)c1ccc(C(=O)N[C@@H](CCC(=O)O)C(=O)O)cc1 [MTX, methotrexate]",enhancement of the affinity of MTX for DHFR by NADPH,DHFR,at least 100 fold
same,IC50,"HPB-MLT cells [3]; 72 h, read-out: IC50 (inhibition of cellular proliferation)",0.6 µM
same,IC80,HPB-MLT cells [3]; 72 h; read-out: IC80 (inhibition of cellular proliferation),> 50 µM
CN(Cc1cnc2nc(N)nc(N)c2n1)c1ccc(C(=O)N[C@@H](CCC(=O)NCCCCCN(CCCCCNC(=O)CC[C@@H](NC(=O)c2ccc(N(C)Cc3cnc4nc(N)nc(N)c4n3)cc2)C(=O)O)CCOCCOCCN)C(=O)O)cc1 [bis-MTX-NH2],solubility in water,Solubility in water,water soluble
CN(Cc1cnc2nc(N)nc(N)c2n1)c1ccc(C(=O)N[C@@H](CCC(=O)NCCCCCN(CCCCCNC(=O)CC[C@@H](NC(=O)c2ccc(N(C)Cc3cnc4nc(N)nc(N)c4n3)cc2)C(=O)O)CCOCCOCCNC(=S)Nc2cccc(-c3c4ccc(=O)cc-4oc4cc(O)ccc34)c2C(=O)O)C(=O)O)cc1 [bisMTX-FITC],internalization (confocal),HPB-MLT cells [2],no observable internalized fluorescence
bis-methotrexate [bisMTX],toxicity to HPB-MLT cells,HPB-MLT cells [3],non-toxic
same,IC50,HPB-MLT cells [3]; 72 h; read-out: IC50 (inhibition of cellular proliferation),> 20 µM
